In patent publication US20100062078A1, “PHARMACEUTICAL COMPOSITION FOR TREATING CANCER AND THE SIGNALING PATHWAY THEREOF” (priority 2008, published 2010):

What was measured:
[1] = tested on: HeLa; assay: Cell cycle distribution; assay type: cell-based, human
[2] = tested on: LNCap; assay: XTT cell proliferation assay (growth inhibition); assay type: cell-based, human; details: Homo sapiens; LNCap, 48-hour treatment
Protocol: (§1) Cells were seeded at 7×10^3 per well in 96-well culture plates before treatment with different concentrations of protoapigenone for 12, 24 and/or 48 hours. Next, the cytotoxicity of protoapigenone was determined using XTT cell proliferation assay (Sigma, St. Louis, Mo.). The absorbance of wavelength at 490 nm (OD490) and 650 nm (OD650) were determined respectively by enzyme-linked immunosorbent assay (ELISA) reader, and 50% of inhibitory concentration (IC50) was calculated by the value of OD490-OD650. In addition, in order to evaluate the long-term effect, the cells were treated with different concentration of protoapigenone for 3 hours, then were incubated with fresh medium for 14 days so as to form colonies. Finally, the cells were stained with crystal violet and were observed under the microscope.

[3] = tested on: RT4; assay: XTT cell proliferation assay (growth inhibition); assay type: cell-based, human
Protocol: as §1

[4] = tested on: Hep 3B; assay: XTT cell proliferation assay (growth inhibition); assay type: cell-based, human
Protocol: as §1

[5] = tested on: T24; assay: XTT cell proliferation assay (growth inhibition); assay type: cell-based, human
Protocol: as §1

[6] = Body weight, complete blood count and biochemical profile of LNCap-xenografted nude mice; assay type: in vivo; details: for BUN / Creatine / Got (glutamic-oxaloacetic transaminase) / Gpt (glutamic-pyruvic transaminase) / MCV (mean corpuscular volume) / RBC / WBC / Body weight: LNCap xenograft
Protocol: (§2) MDAH-2774 human ovarian cancer cells of 2×10^6 (or LNCap prostate cancer cells of 1×10^6) in 0.1 ml PBS were injected subcutaneously at the right flank of 6-week-old female nude mice (Foxnlun/Foxulun). When tumors became visible (approximately 3×3 mm in size), the mice were randomly grouped and treated intraperitoneally with protoapigenone or vehicle every other day. […] Tumor size and body weight were measured twice a week using calipers, and their tumor volumes were calculated according to a standard formula: width^2×length/2. After treatment with protoapigenone for 5 weeks, the mice xenografted with LNCap cells were sacrificed by deep anesthesia, and the blood sampling by cardiac aspiration was done immediately after anesthesia. Complete blood count of the nude mice blood was determined by Sysmex XE-2100 (TOA Medical Electronics, Kobe, Japan), and the plasma blood urea nitrogen (BUN), creatine (Cr), asparatate aminotransferase (AST), and alanine aminotransferase (ALT) levels were determined by Beckman LX20 (Beckman-Coulter, U.S.A.)

[7] = tested on: SKOV3 cells; assay: Cell survival assay (trypan blue) at cell cycle phases; assay type: cell-based, human; details: 4 hours
Protocol: SKOV3 cells at various cell cycle phases were incubated in the 6-cm Petri dishes and treated with protoapigenone at different dosages ([…]). Subsequently, the cells were harvested and mixed with trypan blue at a ratio of 1:1. The stained apoptotic cells were observed under the microscope.

[8] = tested on: LNCap; assay: TUNEL assay; assay type: cell-based, human; details: LNCap, 2.5, 5 and 10 μM, 12 or 24 hours
Protocol: TUNEL assay is performed to detect whether cellular DNA is fragmented. The prostate cancer cells were treated with protoapigenone at various concentrations (2.5, 5 and 10 μM) for 12 or 24 hours, then were stained with TUNEL using the DeadEnd Colorimetric TUNEL system (Promega, Madison, Wis.). In brief, the prostate cancer cells were fixed with 4% paraformaldehyde for 30 minutes after protoapigenone treatment. Next, the fixed cells were incubated with digoxigenin-conjugated dUTP and nucleotide mixture in a recombinant terminal deoxynucleotide transferase-catalyzed reaction in the humidified atmosphere at 37° C. Subsequently, they were immersed in the stop buffer for 15 minutes at 37° C. The Cells were washed with PBS, then were incubated in DAB solutions for 15 minutes in dark. The stained cells were observed under the microscope. The percentage of TUNEL-positive cells were counted in 1000 cells, and the apoptosis index in the later period was calculated.

[9] = tested on: LNCap cells; assay: Cell cycle analysis (PI flow cytometry); assay type: cell-based, human; details: 6 hours and 12 hours
Protocol: The ovarian cancer cells and the prostate cancer cells respectively were treated with protoapigenone at different concentrations (0, 2.5, 5 and 10 μM) for 24 hours and 6 hours (or 12 hours). These cells were harvested by trypsin and fixed with 70% ethanol for 1 hour, washed with phosphate buffered saline (PBS) twice, and resuspended in propidium iodide (PI)/RNase A solution for 30 minutes. In accordance with the mechanism of DNA stained with propidium iodide, the cell cycle and sub-G1 distribution were detected by the FACScan flow cytometry (Becton Dickinson, San Jose, Calif.), and data analysis was done with CellQuest software (BD Bioscience).

[10] = tested on: LNCap prostate cancer cells; assay: Nude mice xenograft model, tumor volume; assay type: in vivo; details: 5 weeks
Protocol: as §2

[11] = tested on: C33A; assay: XTT cell proliferation assay (cytotoxicity); assay type: cell-based; details: Homo sapiens, C-33-A; cervical cancer cell line C33A
Protocol: as §1

[12] = XTT cell proliferation assay (cytotoxicity); assay type: cell-based
Protocol: as §1

[13] = tested on: SKOV3; assay: XTT cell proliferation assay (cytotoxicity); assay type: cell-based; details: Homo sapiens, SK-OV-3; ovarian cancer cell line SKOV3
Protocol: as §1

[14] = tested on: MDA-MB-468; assay: XTT cell proliferation assay (cytotoxicity); assay type: cell-based; details: Homo sapiens; breast cancer cell line MDA-MB-468
Protocol: as §1

[15] = tested on: T47D; assay: XTT cell proliferation assay (cytotoxicity); assay type: cell-based; details: Homo sapiens; breast cancer cell line T47D
Protocol: as §1

[16] = tested on: HeLa; assay: XTT cell proliferation assay (cytotoxicity); assay type: cell-based; details: Homo sapiens; cervical cancer cell line HeLa
Protocol: as §1

## O=C1C=CC(O)(c2cc(=O)c3c(O)cc(O)cc3o2)C=C1 [protoapigenone]
[1]
  cell cycle distribution: arrested at G2/M phase
[2]
  IC50: 3.7 ± 0.2 µM
[3]; 4 μM and 8 μM, 24 and 48 hours
  survival rate of RT4 cells: decreased
[3]; RT-4, human urinary bladder transitional cell papilloma RT4
  IC50: 5.11 ± 3.25 µM
[3]; low concentrations (0.5, 1 and 2 μM)
  survival rate of RT4 cells: over 100%
[4]; Hep 3B, various concentrations
  growth inhibition: dose-dependent and time-dependent
[4]; Hep3B, human hepatocellular carcinoma Hep 3B
  IC50: 1.86 µM
[5]; Homo sapiens, T-24, bladder cancer T24
  IC50: 5.52 ± 0.598 µM
[5]; T24, various concentrations
  growth inhibition: dose-dependent and time-dependent
[6]; high dose, 5 weeks
  BUN: 24.8 ± 9.0 mg/dL
  Creatine: 0.48 ± 0.10 mg/dL
  Got (glutamic-oxaloacetic transaminase): 630.7 ± 165.5 U/L
  Gpt (glutamic-pyruvic transaminase): 137.3 ± 55.8 U/L
  MCV (mean corpuscular volume): 47.7 ± 0.9 fL
  RBC: 7.3 ± 0.7 10^6/µL
  WBC: 2.7 ± 1.0 10 × 3/μl
[6]; high dose, after treatment (5 weeks)
  Body weight: 13.5 ± 0.6 g
[6]; high dose, before treatment
  Body weight: 11.5 ± 0.8 g
[6]; low dose, 5 weeks
  BUN: 23.9 ± 3.2 mg/dL
  Creatine: 0.43 ± 0.05 mg/dL
  Got (glutamic-oxaloacetic transaminase): 520.5 ± 169.9 U/L
  Gpt (glutamic-pyruvic transaminase): 130.0 ± 119.9 U/L
  MCV (mean corpuscular volume): 46.8 ± 0.8 fL
  RBC: 7.3 ± 0.6 10^6/µL
  WBC: 2.3 ± 0.7 10 × 3/μl
[6]; low dose, after treatment (5 weeks)
  Body weight: 13.6 ± 1.2 g
[6]; low dose, before treatment
  Body weight: 11.8 ± 0.4 g
[6]; LNCap-xenografted nude mice, 5 weeks
  body weight, control vs protoapigenone-treated group: no significant difference
[6]; LNCap-xenografted nude mice, intraperitoneal injection, 5 weeks
  impairment of hematopoiesis, liver function, or renal function: No significant impairment
[7]; 5 μM
  decrease in number of SKOV3 cells proliferated at G2 phase: 20.3%
  decrease in number of SKOV3 cells proliferated at M phase: 44.8%
  decrease in number of SKOV3 cells proliferated at S phase: 23.5%
[7]; 10 μM
  decrease in number of SKOV3 cells proliferated at G2 phase: 34.7%
  decrease in number of SKOV3 cells proliferated at M phase: 70.5%
  decrease in number of SKOV3 cells proliferated at S phase: 45.4%
[8]
  ratio of TUNEL positive cells: increased along with time and the increased protoapigenone concentrations
[9]
  cell cycle distribution: arrests the LNCap cells at S and G2/M phases
[10]; high dose (3.7 μM/g body weight i.p. every other day)
  average tumor size: 1153.0±218.7 mm^3
[10]; low dose (0.37 μM/g body weight i.p. every other day)
  average tumor size: 1876.9±428.6 mm^3
[11]
  IC50: 4.69 ± 0.21 µM
[12]; HOSE 6-3 immortalized ovarian epithelial cells, immortalized human ovarian epithelial cells HOSE 6-3
  IC50: 8.98 ± 0.33 µM
[12]; HOSE 11-12 immortalized ovarian epithelial cells, immortalized human ovarian epithelial cells HOSE 11-12
  IC50: 10.1 ± 0.53 µM
[12]; MCF-10A immortalized breast epithelial cells, immortalized human breast epithelial cell MCF-10A
  IC50: 33.6 ± 0.53 µM
[13]
  IC50: 0.78 ± 0.28 µM
[14]
  IC50: 3.33 ± 1.25 µM
[15]
  IC50: 5.13 ± 0.23 µM
[16]
  IC50: 3.66 ± 0.61 µM
